US5077286A, “Beta-lactam derivatives of the 4-acylcephem sulphone and 3-acylpenam sulphone-type” (Farmitalia Carlo Erba S.r.l., priority 1988, dated 1991)

How the values were obtained:
[1] = Chemical stability at 37° C., 0.05M pH 7.4 phosphate buffer (HPLC, time course of starting material depletion); type: physicochemical; conditions: 0.05m phosphate buffer, 5% DMSO, 10 mM initial conc., read-out: Chemical stability t1/2 (converted)
Description: (a) Chemical stability at 37° C., 0.05M pH 7.4 phosphate buffer (5% DMSO as solubilizing vehicle) was determined by following the time course of starting material depletion ([…] kinetics; 10 mM initial conc.) by HPLC analysis (stationary phase Whatman Partisphere 5 C18, 110×4.7 mm i.d., mobile phase A, pH 2.5 0.1M phosphate buffer; mobile phase B, 60:40 phase A/MeCN; UV detection at λ=254 nm;

[2] = molecular target: T1, human leukocyte elastase (HLE) (Homo sapiens, UniProt P08246); assay: HLE-inhibition kinetic parameters (fluorescence, release of 7-amino-4-methylcoumarin from peptide substrate); type: biochemical; conditions: 37° C., 0.027M pH 7.4 phosphate buffer, 1% DMSO, 1% MeCN, NaCl (I=0.15); for Ki: read-out: HLE-inhibition kinetic parameters: Ki^ss (apparent dissociation constant of HLE-inhibitor complex at steady state); for koff: read-out: HLE-inhibition kinetic parameters: Koff (dissociation rate); for kon: read-out: HLE-inhibition kinetic parameters: Kon (rate of formation of the HLE complex)
T1 construct: purchased Calbiochem Lot 702738
T1 sequence (P08246 30-267): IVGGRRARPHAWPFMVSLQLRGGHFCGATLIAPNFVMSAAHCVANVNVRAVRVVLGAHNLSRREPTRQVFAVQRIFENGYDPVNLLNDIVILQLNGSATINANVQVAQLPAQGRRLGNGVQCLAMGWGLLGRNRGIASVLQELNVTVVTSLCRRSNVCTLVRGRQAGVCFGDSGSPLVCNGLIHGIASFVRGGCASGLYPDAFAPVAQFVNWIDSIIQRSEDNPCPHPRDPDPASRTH
Description: (b) Kinetic parameters of HLE (Calbiochem. Lot 702738) were determined at 37° C., 0.027M pH 7.4 phosphate buffer, 1% DMSO, 1% MeCN, NaCl (I=0.15), by monitoring the release of 7-amino-4-methylcoumarin (fluorence detection) from N-methoxysuccinyl-alanyl-propyl-valyl-7-amido-4-methylcoumarin as the substrate, according to the equations: [formula] wherein: [P], [I], [S]=product, inhibitor, and substrate concentration
Km=Michaelis constant for the enzyme-substrate pair (independently determined under the same experimental conditions).

Row | Structure (SMILES) | half-life at 10000 µM [1] [h] | Ki [2] [nM] | koff [2] [s⁻¹] | kon [2] [M⁻¹ s⁻¹]
1 | CO[C@H]1C(=O)N2C(C(=O)C(C)(C)C)=C(COC(C)=O)CS(=O)(=O)[C@H]12 [Compound 51, 3-Acetoxymethyl-4-tert-butylcarbonyl-(7α)-methoxy-3-cephem 1,1-dioxide] | 19.3 | 11 | 0.0026 | 20000
2 | CO[C@H]1C(=O)N2C(C(=O)OC(C)(C)C)=C(COC(C)=O)CS(=O)(=O)[C@H]12 [Reference] | 3.2 | 18.4 | 0.0035 | 9000
